Data from ChEMBL document CHEMBL1201862, “PubChem BioAssay data set” (2004).
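96-well plates; 48 h exposure; 5 concentrations. Endpoints by linear interpolation between flanking doses. Not reached: highest tested concentration assigned. Here, GI50 denotes the concentration required for 50% inhibition of growth.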 Active and inactive are the calls of the source. Rule as the data show it: active = GI50 up to about 1.1 µM and inactive = higher.

What was measured:
Assay in all cases: NCI-60 cell line screen, 48 h
[1] = system: A498
[2] = system: A549
[3] = system: HOP-92
[4] = system: K562
[5] = system: MCF7
[6] = system: MDA-MB-231
[7] = system: NCI-H460
[8] = system: NCI/ADR-RES
[9] = system: OVCAR-4
[10] = system: RPMI-8226
[11] = system: SF-268
[12] = system: SF-539
[13] = system: SK-MEL-2
[14] = system: SK-MEL-5
[15] = system: SK-OV-3
[16] = system: SNB-75
[17] = system: SR
[18] = system: T47D
[19] = system: TK-10
[20] = system: UACC-257

Row | Structure (SMILES) | GI50 [1] | GI50 [2] | GI50 [3] | GI50 [4] | GI50 [5] | GI50 [6] | GI50 [7] | GI50 [8] | GI50 [9] | GI50 [10] | GI50 [11] | GI50 [12] | GI50 [13] | GI50 [14] | GI50 [15] | GI50 [16] | GI50 [17] | GI50 [18] | GI50 [19] | GI50 [20]
1 | C=C1CCN2CC[C@@H](OC(=O)/C(C)=C\C)[C@@H]12 | > 100 µM (inactive) | > 100 µM (inactive) | > 100 µM (inactive) | > 100 µM (inactive) | > 100 µM (inactive) | > 100 µM (inactive) | > 100 µM (inactive) | > 100 µM (inactive) | > 100 µM (inactive) | > 100 µM (inactive) | > 100 µM (inactive) | > 100 µM (inactive) | > 100 µM (inactive) | > 100 µM (inactive) | > 100 µM (inactive) | > 100 µM (inactive) | > 100 µM (inactive) | > 100 µM (inactive) | > 100 µM (inactive) | > 100 µM (inactive)
2 | O=[N+]([O-])c1ccc(S(=O)(=O)Cc2ccccc2)c2nonc12 | > 100 µM (inactive) | 29.4 µM (inactive) | 19.9 µM (inactive) | 26.6 µM (inactive) | 20.2 µM (inactive) | 22.5 µM (inactive) | 21.1 µM (inactive) | 27 µM (inactive) | 17.3 µM (inactive) | 25.1 µM (inactive) | 20 µM (inactive) | 17.9 µM (inactive) | 19.3 µM (inactive) | 18.5 µM (inactive) | > 100 µM (inactive) | 27.6 µM (inactive) | 24.2 µM (inactive) | 18.9 µM (inactive) | 18.1 µM (inactive) | 16.1 µM (inactive)
3 | O=C1/C(=C/c2ccc(F)cc2)CNC/C1=C\c1ccc(F)cc1 | 2.25 µM (inactive) | 2.92 µM (inactive) | 3.61 µM (inactive) | 0.245 µM (active) | 0.813 µM (active) | 2.39 µM (inactive) | 0.675 µM (active) | 2.95 µM (inactive) | 2.09 µM (inactive) | 0.275 µM (active) | 0.818 µM (active) | 0.865 µM (active) | 12 µM (inactive) | 1.42 µM (inactive) | 6.92 µM (inactive) | 3.75 µM (inactive) | 0.305 µM (active) | 3.37 µM (inactive) | 2.21 µM (inactive) | 3.76 µM (inactive)
4 | CCCCCCCCCCCC(=O)N(CCCCCCCCC)CC(O)C(O)C(OC1OC(CO)C(O)C(O)C1O)C(O)CO (stereo not given) | 23.1 µM (inactive) | 21 µM (inactive) | 18.6 µM (inactive) | 26.9 µM (inactive) | 35.8 µM (inactive) | 26 µM (inactive) | 18.1 µM (inactive) | 20.1 µM (inactive) | 21 µM (inactive) | 34 µM (inactive) | 19.4 µM (inactive) | 21.4 µM (inactive) | 19.7 µM (inactive) | 17.4 µM (inactive) | > 10 µM (inactive) | 18.5 µM (inactive) | 24.7 µM (inactive) | 20.5 µM (inactive) | 15.2 µM (inactive) | 16.9 µM (inactive)
5 | ClC1=C(Cl)C(Cl)(Cl)SS1 | > 10 µM (inactive) | > 10 µM (inactive) | > 5.57 µM (inactive) | 3.17 µM (inactive) | > 5.27 µM (inactive) | > 10 µM (inactive) | > 10 µM (inactive) | > 7.21 µM (inactive) | > 5.93 µM (inactive) | 3.44 µM (inactive) | > 10 µM (inactive) | > 10 µM (inactive) | > 10 µM (inactive) | > 7.01 µM (inactive) | > 10 µM (inactive) | > 10 µM (inactive) | 1.73 µM (inactive) | 4.79 µM (inactive) | > 5.86 µM (inactive) | > 5.09 µM (inactive)
